Tests used:
Mus musculus [1] = species: Mus musculus; assay: animal or person; type: functional; details: po
Mus musculus [2] = species: Mus musculus; assay: animal or person; type: functional; details: sc

For `COc1cccc2c1CC[C@H](N1CCCC1)[C@H]2N(C)C(=O)CSc1ccc(Cl)c(Cl)c1.Cl`, the ED50 (Mus musculus [1]) was over 81 mg/kg and the ED50 (Mus musculus [2]) was 47 mg/kg.

For `COc1cccc2c1CC[C@H](N1CCCC1)[C@H]2N(C)C(=O)CCc1ccc(Cl)c(Cl)c1.Cl`, the ED50 (Mus musculus [1]) was 81 mg/kg and the ED50 (Mus musculus [2]) was 38 mg/kg.

Compound `CN(C(=O)Cc1ccc(Cl)c(Cl)c1)[C@H]1c2cccc(OC(=O)c3ccccc3)c2CC[C@@H]1N1CCCC1.Cl` has an ED50 (Mus musculus [1]) of 6.4 mg/kg and an ED50 (Mus musculus [2]) of 0.71 mg/kg.

Work on `COc1ccc2c(c1)CC[C@H](N1CC=CC1)[C@H]2N(C)C(C)=O.Cl` yielded an ED50 (Mus musculus [1]) of 3.4 mg/kg and an ED50 (Mus musculus [2]) of 0.24 mg/kg.

`COc1ccc2c(c1)CC[C@H](N1CCCCC1)[C@H]2N(C)C(C)=O.Cl` gave an ED50 (Mus musculus [1]) of over 81 mg/kg and an ED50 (Mus musculus [2]) of over 81 mg/kg.

Work on `COc1ccc2c(c1)CC[C@H](N1C=CN(C)CC1)[C@H]2N(C)C(C)=O.Cl` yielded an ED50 (Mus musculus [1]) of over 81 mg/kg and an ED50 (Mus musculus [2]) of over 81 mg/kg.

`COc1ccc2c(c1)CC[C@H](N1CCCC1)[C@H]2N(C)C=O.Cl` gave an ED50 (Mus musculus [1]) of 81 mg/kg and an ED50 (Mus musculus [2]) of 47 mg/kg.

`CN(C(=O)Cc1ccc(Cl)c(Cl)c1)[C@H]1c2ccccc2-c2ccccc2[C@@H]1N1CCCC1.Cl` was tested, and the ED50 (Mus musculus [1]) was over 81 mg/kg and the ED50 (Mus musculus [2]) was over 81 mg/kg.

`CN(C(=O)Cc1ccc(Cl)c(Cl)c1)[C@H]1CCc2ccccc2[C@@H]1N1CCCC1.Cl` was tested, and the ED50 (Mus musculus [1]) was over 81 mg/kg and the ED50 (Mus musculus [2]) was 0.16 mg/kg.
